Results taken from ChEMBL document CHEMBL1201862, “PubChem BioAssay data set” (2004).
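Exposure lasted 48 hours, with cells grown in 96-well plates and compounds tested at five concentrations. At the GI50, growth is halved.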 Active and inactive are the calls of the source. Rule as the data show it: active = GI50 up to about 1.1 µM and inactive = higher.

Columns and labels:
Assay in all cases: growth of human tumour cells (NCI), 48 h
786-0 = test system: 786-0
A498 = test system: A498
A549 = test system: A549
ACHN = test system: ACHN
CCRF-CEM = test system: CCRF-CEM
COLO 205 = test system: COLO 205
DLD-1 = test system: DLD-1
DMS-114 = test system: DMS-114
DMS-273 = test system: DMS-273
EKVX = test system: EKVX
HCC 2998 = test system: HCC 2998
HCT-116 = test system: HCT-116
HCT-15 = test system: HCT-15
HL-60 = test system: HL-60
HOP-18 = test system: HOP-18
HOP-62 = test system: HOP-62
HOP-92 = test system: HOP-92
HT-29 = test system: HT-29
IGROV-1 = test system: IGROV-1
K562 = test system: K562
KM-20L2 = test system: KM-20L2
KM12 = test system: KM12
LOX IMVI = test system: LOX IMVI
LXFL 529 = test system: LXFL 529
M14 = test system: M14
M19-MEL = test system: M19-MEL
Malme-3M = test system: Malme-3M
NCI-H226 = test system: NCI-H226
NCI-H23 = test system: NCI-H23
NCI-H460 = test system: NCI-H460
NCI-H522 = test system: NCI-H522
OVCAR-3 = test system: OVCAR-3
OVCAR-4 = test system: OVCAR-4
OVCAR-5 = test system: OVCAR-5
OVCAR-8 = test system: OVCAR-8
RXF 393 = test system: RXF 393
RXF 631 = test system: RXF 631
SF-268 = test system: SF-268
SF-295 = test system: SF-295
SF-539 = test system: SF-539
SK-MEL-28 = test system: SK-MEL-28
SK-MEL-2 = test system: SK-MEL-2
SK-MEL-5 = test system: SK-MEL-5
SK-OV-3 = test system: SK-OV-3
SN12C = test system: SN12C
SNB-19 = test system: SNB-19
SNB-75 = test system: SNB-75
SNB-78 = test system: SNB-78
SW-620 = test system: SW-620
TK-10 = test system: TK-10
U-251 = test system: U-251
UACC-257 = test system: UACC-257
UACC-62 = test system: UACC-62
UO-31 = test system: UO-31
XF498 = test system: XF498
MOLT-4 = test system: MOLT-4
RPMI-8226 = test system: RPMI-8226
SR = test system: SR
CAKI-1 = test system: CAKI-1

For COc1c(O)ccc(/C=N/NC(=S)NCOCCOC(C)=O)c1OC, the GI50 (786-0) was > 100 µM (inactive), the GI50 (A498) was > 100 µM (inactive) and the GI50 (A549) was > 100 µM (inactive). For the same compound, the GI50 (ACHN) was > 100 µM (inactive), the GI50 (CCRF-CEM) was > 100 µM (inactive) and the GI50 (COLO 205) was > 100 µM (inactive). For the same compound, the GI50 (DLD-1) was > 100 µM (inactive), the GI50 (DMS-114) was > 100 µM (inactive) and the GI50 (DMS-273) was > 100 µM (inactive). For the same compound, the GI50 (EKVX) was > 100 µM (inactive), the GI50 (HCC 2998) was > 100 µM (inactive) and the GI50 (HCT-116) was > 100 µM (inactive). For the same compound, the GI50 (HCT-15) was greater than 100 µM, the GI50 (HL-60) was > 100 µM (inactive) and the GI50 (HOP-18) was > 100 µM (inactive). The GI50 (HOP-62) was > 100 µM (inactive), the GI50 (HOP-92) was > 100 µM (inactive) and the GI50 (HT-29) was > 100 µM (inactive). The GI50 (IGROV-1) was > 100 µM (inactive), the GI50 (K562) was > 100 µM (inactive) and the GI50 (KM-20L2) was > 100 µM (inactive). For the same compound, the GI50 (KM12) was > 100 µM (inactive), the GI50 (LOX IMVI) was > 100 µM (inactive) and the GI50 (LXFL 529) was > 100 µM (inactive). The GI50 (M14) was > 100 µM (inactive), the GI50 (M19-MEL) was > 100 µM (inactive) and the GI50 (Malme-3M) was > 100 µM (inactive). For the same compound, the GI50 (NCI-H226) was > 100 µM (inactive), the GI50 (NCI-H23) was > 100 µM (inactive) and the GI50 (NCI-H460) was > 100 µM (inactive). The GI50 (NCI-H522) was > 100 µM (inactive), the GI50 (OVCAR-3) was > 100 µM (inactive) and the GI50 (OVCAR-4) was > 100 µM (inactive). For the same compound, the GI50 (OVCAR-5) was > 100 µM (inactive), the GI50 (OVCAR-8) was > 100 µM (inactive) and the GI50 (RXF 393) was > 100 µM (inactive). For the same compound, the GI50 (RXF 631) was > 100 µM (inactive), the GI50 (SF-268) was > 100 µM (inactive) and the GI50 (SF-295) was > 100 µM (inactive). For the same compound, the GI50 (SF-539) was > 100 µM (inactive), the GI50 (SK-MEL-28) was > 100 µM (inactive) and the GI50 (SK-MEL-2) was > 100 µM (inactive). The GI50 (SK-MEL-5) was > 100 µM (inactive), the GI50 (SK-OV-3) was > 100 µM (inactive) and the GI50 (SN12C) was > 100 µM (inactive). For the same compound, the GI50 (SNB-19) was > 100 µM (inactive), the GI50 (SNB-75) was > 100 µM (inactive) and the GI50 (SNB-78) was > 100 µM (inactive). The GI50 (SW-620) was > 100 µM (inactive), the GI50 (TK-10) was > 100 µM (inactive) and the GI50 (U-251) was > 100 µM (inactive). For the same compound, the GI50 (UACC-257) was > 100 µM (inactive), the GI50 (UACC-62) was > 100 µM (inactive) and the GI50 (UO-31) was > 100 µM (inactive). For the same compound, the GI50 (XF498) was > 100 µM (inactive).
In the case of N#CCCn1[nH]c(=O)c(Cl)c(Cl)c1=O, the GI50 (786-0) is reported as 18.7 µM (inactive), the GI50 (A498) is reported as 20.2 µM (inactive) and the GI50 (A549) is reported as 22.7 µM (inactive). For the same compound, the GI50 (ACHN) was 17 µM (inactive), the GI50 (COLO 205) was 22.2 µM (inactive) and the GI50 (DLD-1) was 10.3 µM (inactive). For the same compound, the GI50 (DMS-114) was 14.9 µM (inactive), the GI50 (EKVX) was 3.87 µM (inactive) and the GI50 (HCC 2998) was 13.1 µM (inactive). For the same compound, the GI50 (HCT-116) was 15.1 µM (inactive), the GI50 (HCT-15) was 10.4 µM and the GI50 (HL-60) was 11.3 µM (inactive). For the same compound, the GI50 (HOP-18) was 16.9 µM (inactive), the GI50 (HOP-62) was > 10 µM (inactive) and the GI50 (HOP-92) was 6.21 µM (inactive). The GI50 (HT-29) was 11.8 µM (inactive), the GI50 (IGROV-1) was 17.1 µM (inactive) and the GI50 (K562) was 6.12 µM (inactive). The GI50 (KM-20L2) was 15.8 µM (inactive), the GI50 (KM12) was 14.5 µM (inactive) and the GI50 (LOX IMVI) was 15 µM (inactive). The GI50 (LXFL 529) was 16.9 µM (inactive), the GI50 (M19-MEL) was 12 µM (inactive) and the GI50 (MOLT-4) was 15.9 µM (inactive). The GI50 (Malme-3M) was 17.3 µM (inactive), the GI50 (NCI-H226) was 23 µM (inactive) and the GI50 (NCI-H23) was 15.2 µM (inactive). For the same compound, the GI50 (NCI-H460) was 13.3 µM (inactive), the GI50 (NCI-H522) was 20.2 µM (inactive) and the GI50 (OVCAR-3) was 13.6 µM (inactive). For the same compound, the GI50 (OVCAR-4) was 18 µM (inactive), the GI50 (OVCAR-5) was 18.8 µM (inactive) and the GI50 (OVCAR-8) was 15.7 µM (inactive). For the same compound, the GI50 (RPMI-8226) was 11.5 µM (inactive), the GI50 (RXF 393) was 17.1 µM (inactive) and the GI50 (RXF 631) was 19.6 µM (inactive). For the same compound, the GI50 (SF-268) was 16.3 µM (inactive), the GI50 (SF-295) was 18.1 µM (inactive) and the GI50 (SF-539) was 23.3 µM (inactive). The GI50 (SK-MEL-28) was 15.8 µM (inactive), the GI50 (SK-MEL-2) was 14.7 µM (inactive) and the GI50 (SN12C) was 17.4 µM (inactive). The GI50 (SNB-19) was 15.4 µM (inactive), the GI50 (SNB-75) was 13.2 µM (inactive) and the GI50 (SNB-78) was 19.6 µM (inactive). The GI50 (SR) was 14.7 µM (inactive), the GI50 (SW-620) was 17.8 µM (inactive) and the GI50 (TK-10) was 35.8 µM (inactive). The GI50 (U-251) was 16.6 µM (inactive), the GI50 (UACC-257) was 18.9 µM (inactive) and the GI50 (UO-31) was 18.9 µM (inactive). For the same compound, the GI50 (XF498) was 16.1 µM (inactive).
For O=C(O)C1=CNC(C(=O)O)=NN1, the GI50 (786-0) was > 100 µM (inactive), the GI50 (A549) was > 100 µM (inactive) and the GI50 (ACHN) was > 100 µM (inactive). The GI50 (CAKI-1) was > 100 µM (inactive), the GI50 (CCRF-CEM) was > 100 µM (inactive) and the GI50 (COLO 205) was > 100 µM (inactive). For the same compound, the GI50 (DLD-1) was > 100 µM (inactive), the GI50 (DMS-114) was > 100 µM (inactive) and the GI50 (EKVX) was > 100 µM (inactive). The GI50 (HCT-116) was > 100 µM (inactive), the GI50 (HCT-15) was greater than 100 µM and the GI50 (HL-60) was > 100 µM (inactive). The GI50 (HOP-18) was > 100 µM (inactive), the GI50 (HOP-62) was > 100 µM (inactive) and the GI50 (HOP-92) was > 100 µM (inactive). The GI50 (HT-29) was > 100 µM (inactive), the GI50 (IGROV-1) was > 100 µM (inactive) and the GI50 (K562) was > 100 µM (inactive). The GI50 (KM-20L2) was > 100 µM (inactive), the GI50 (KM12) was > 100 µM (inactive) and the GI50 (LXFL 529) was > 100 µM (inactive). For the same compound, the GI50 (M14) was > 100 µM (inactive), the GI50 (M19-MEL) was > 100 µM (inactive) and the GI50 (MOLT-4) was > 100 µM (inactive). For the same compound, the GI50 (Malme-3M) was > 100 µM (inactive), the GI50 (NCI-H226) was > 100 µM (inactive) and the GI50 (NCI-H23) was > 100 µM (inactive). For the same compound, the GI50 (NCI-H460) was > 100 µM (inactive), the GI50 (NCI-H522) was > 100 µM (inactive) and the GI50 (OVCAR-3) was > 100 µM (inactive). For the same compound, the GI50 (OVCAR-4) was > 100 µM (inactive), the GI50 (OVCAR-8) was > 100 µM (inactive) and the GI50 (RPMI-8226) was > 100 µM (inactive). For the same compound, the GI50 (RXF 393) was > 100 µM (inactive), the GI50 (RXF 631) was > 100 µM (inactive) and the GI50 (SF-268) was > 100 µM (inactive). For the same compound, the GI50 (SF-295) was > 100 µM (inactive), the GI50 (SF-539) was > 100 µM (inactive) and the GI50 (SK-MEL-28) was > 100 µM (inactive). The GI50 (SK-MEL-2) was > 100 µM (inactive), the GI50 (SK-MEL-5) was > 100 µM (inactive) and the GI50 (SK-OV-3) was > 100 µM (inactive). The GI50 (SN12C) was > 100 µM (inactive), the GI50 (SNB-19) was > 100 µM (inactive) and the GI50 (SNB-75) was > 100 µM (inactive). The GI50 (SR) was > 100 µM (inactive), the GI50 (SW-620) was > 100 µM (inactive) and the GI50 (TK-10) was > 100 µM (inactive). The GI50 (U-251) was > 100 µM (inactive), the GI50 (UACC-257) was > 100 µM (inactive) and the GI50 (UACC-62) was > 100 µM (inactive). For the same compound, the GI50 (UO-31) was > 100 µM (inactive) and the GI50 (XF498) was > 100 µM (inactive).
